According to US20140004243A1, “SALTY TASTE ENHANCER” (AJINOMOTO CO., INC., priority 2011, published 2014):

Target: T1, Human ENaC δ, β and γ subunit (Homo sapiens, UniProt P51168+P51170+P51172)
T1 construct: expressed in transfected cells; host or cells: Xenopus laevis (African clawed frog) oocytes injected with cRNA
T1 sequence (P51172 1-802): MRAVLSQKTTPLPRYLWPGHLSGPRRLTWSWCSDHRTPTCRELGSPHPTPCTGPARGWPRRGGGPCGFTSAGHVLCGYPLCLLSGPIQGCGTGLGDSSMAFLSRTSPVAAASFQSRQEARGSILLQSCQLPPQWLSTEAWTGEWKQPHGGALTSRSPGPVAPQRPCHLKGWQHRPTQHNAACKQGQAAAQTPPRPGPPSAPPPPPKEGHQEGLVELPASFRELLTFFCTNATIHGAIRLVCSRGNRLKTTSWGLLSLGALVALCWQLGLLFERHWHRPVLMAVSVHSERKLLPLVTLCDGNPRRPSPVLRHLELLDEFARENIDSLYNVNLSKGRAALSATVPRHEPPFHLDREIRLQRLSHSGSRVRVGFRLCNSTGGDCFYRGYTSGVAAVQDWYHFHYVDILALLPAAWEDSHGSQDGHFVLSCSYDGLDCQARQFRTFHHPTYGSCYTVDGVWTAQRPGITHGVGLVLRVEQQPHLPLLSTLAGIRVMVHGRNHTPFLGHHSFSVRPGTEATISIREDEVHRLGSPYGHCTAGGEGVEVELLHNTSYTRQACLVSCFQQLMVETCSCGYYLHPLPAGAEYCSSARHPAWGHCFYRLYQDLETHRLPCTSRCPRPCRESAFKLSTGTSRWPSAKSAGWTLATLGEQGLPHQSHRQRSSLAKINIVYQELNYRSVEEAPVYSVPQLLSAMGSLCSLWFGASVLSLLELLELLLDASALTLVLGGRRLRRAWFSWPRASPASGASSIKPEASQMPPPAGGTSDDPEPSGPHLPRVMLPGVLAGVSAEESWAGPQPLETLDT
T1 sequence (P51168 1-640): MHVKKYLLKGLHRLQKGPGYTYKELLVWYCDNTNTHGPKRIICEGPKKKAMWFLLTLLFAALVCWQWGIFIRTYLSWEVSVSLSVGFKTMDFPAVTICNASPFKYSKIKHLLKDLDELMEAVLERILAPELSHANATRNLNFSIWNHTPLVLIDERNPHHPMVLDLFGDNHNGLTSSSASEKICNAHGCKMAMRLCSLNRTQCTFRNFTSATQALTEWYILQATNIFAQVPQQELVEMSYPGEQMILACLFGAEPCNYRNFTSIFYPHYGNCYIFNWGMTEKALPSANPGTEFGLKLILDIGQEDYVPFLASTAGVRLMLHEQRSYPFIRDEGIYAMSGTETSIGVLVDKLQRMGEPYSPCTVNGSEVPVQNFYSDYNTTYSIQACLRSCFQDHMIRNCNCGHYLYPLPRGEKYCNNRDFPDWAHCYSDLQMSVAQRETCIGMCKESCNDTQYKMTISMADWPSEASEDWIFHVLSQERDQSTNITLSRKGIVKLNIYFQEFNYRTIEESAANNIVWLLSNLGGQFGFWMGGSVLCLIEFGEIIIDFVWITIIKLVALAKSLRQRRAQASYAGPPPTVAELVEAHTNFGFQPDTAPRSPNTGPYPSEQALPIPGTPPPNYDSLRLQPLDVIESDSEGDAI
T1 sequence (P51170 1-649): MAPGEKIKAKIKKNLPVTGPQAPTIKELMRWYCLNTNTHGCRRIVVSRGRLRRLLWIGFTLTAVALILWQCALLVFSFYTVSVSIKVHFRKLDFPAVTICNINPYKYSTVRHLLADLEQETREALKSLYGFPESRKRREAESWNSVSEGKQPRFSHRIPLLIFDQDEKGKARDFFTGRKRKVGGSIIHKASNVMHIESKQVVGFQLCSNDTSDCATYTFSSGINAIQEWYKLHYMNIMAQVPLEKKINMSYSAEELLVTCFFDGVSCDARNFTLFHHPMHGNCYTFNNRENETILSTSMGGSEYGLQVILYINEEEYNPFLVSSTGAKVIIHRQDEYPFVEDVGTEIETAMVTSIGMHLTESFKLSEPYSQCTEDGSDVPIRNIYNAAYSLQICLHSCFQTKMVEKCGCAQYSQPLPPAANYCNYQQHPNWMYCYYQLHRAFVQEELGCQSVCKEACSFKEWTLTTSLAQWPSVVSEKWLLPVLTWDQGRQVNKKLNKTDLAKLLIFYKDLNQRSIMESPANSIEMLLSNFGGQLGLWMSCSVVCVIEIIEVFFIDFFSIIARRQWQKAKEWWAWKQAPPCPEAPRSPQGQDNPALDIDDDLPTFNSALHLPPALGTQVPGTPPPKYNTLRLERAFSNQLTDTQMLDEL
Experiment: Measurement of ENaC activation potency (MED) in ENaC-expressing oocyte, Two Electrode Voltage Clamp
Type: cell-based
Conditions: minimum effective dose at which current started to increase; ENaC-expressing African clawed frog oocyte; smaller MED = higher ENaC activation potency
Experimental: ENaC activation current value, namely, the inward current in ENaC-expressing oocyte was measured as follows.
According to the method described in Motonao Nakamura, Takao Shimizu: Experiment of African clawed frog oocyte, Experimental Medicine Vol. 11, No. 3, 224-232 (1993), oocyte was collected from African clawed frog, […], and the current value was measured by a Two Electrode Voltage Clamp technique. In the present invention, ND96 (96 mM NaCl, 2 mM KCl, 1 mM MgCl2, 5 mM Hepes, 1.8 mM CaCl2, pH 7.6) was used instead of MBS buffer in the above-mentioned document. Injector NANOLITER 2000 manufactured by World Precision Instruments was used for microinjection, OpusXpress 6000A manufactured by Molecular Devices was used for current value measurement by a Two Electrode Voltage Clamp technique, and Clampfit 10.2 software manufactured by Molecular Devices was used for data analysis.
Human ENaC δ, β and γ subunit genes shown by SEQ ID NOs: 1, 2 and 3, respectively, in the Sequence Listing were each cloned into a plasmid vector, and used as a template DNA for cRNA synthesis. cRNA was synthesized using MEGAscript kit manufactured by Ambion and according to the method of the manual of the manufacturer.
A mixture of the same amount of ENaC […] cRNA (0.4 to 0.8 μg/μL), and β and γ subunits cRNA (0.4 μg/μL) was injected into the oocyte of African clawed frog at […] per oocyte, and the oocyte was cultured for 16 hr-72 hr. Thereafter, the oocyte was set on a measuring apparatus OpusXpress 6000A, the electrodes were inserted into the oocyte, the voltage was clamped at a level lower by −30 mV than the resting membrane potential by a Two Electrode Voltage Clamp technique, and the current value was measured.
To measure the ENaC activation potency, oocyte was stimulated with each test compound, and the minimum effective dose (hereinafter to be abbreviated as MED) of the compound at the time point when the electric current started to increase was measured. In this case, whichever smaller value of the minimum effective dose of the stimulation compound that increased the current value by not less than 10%, and the minimum effective concentration of the compound that increased, by not less than 25%, the electric current increase value due to the stimulation by 5 μM capsazepine (CAS NO.: 138977-28-3), as compared to the current value before addition of the compound and without stimulation, was taken as MED. A smaller MED means higher ENaC activation potency.
Each test compound was directly dissolved in ND96, or first dissolved in dimethyl sulfoxide (DMSO) to 100 mM, and then prepared by diluting the solution with ND96 to a concentration used for the evaluation. The concentration of the test compound in ND96 was prepared to various concentrations within the range of 0.1 nM to 300 μm.
ND96 as a perfusion fluid was flown at a rate of 0.5 mL/min through the measuring apparatus OpusXpress 6000A on which ENaC-expressing oocyte was set, the perfusion fluid was temporarily stopped every 3 minutes to add a test compound solution (0.25 mL) dissolved in ND96 at a rate of 0.5 mL/min. In this way, the test compound was contacted with ENaC-expressing oocyte, and whether ENaC is activated by the compound was examined by measuring the current value. After addition of the test compound, feeding of the perfusion fluid was resumed to wash away the compound to be ready for the next addition of the compound.
The compound was added successively from a low concentration to a high concentration to stimulate ENaC-expressing oocyte. The concentrations actually added was, for example, 1 nM, 3 nM, 10 nM, 30 nM, 100 nM, 300 nM; 1 μM, 3 μM, 10 μm, 30 μm, 100 μm, 300 μm; 1.2 μM, 6 μM, 30 μm, 150 μm of one test compound. The compound was added from low concentrations to high concentrations at 3 min intervals. […]

MED	SMILES
1 µM	C[C@@H](NC(=S)NNCc1ccccc1O)c1ccccc1 [Example 90]
10 µM	COC[C@@H](Cc1ccccc1)NC(=S)NCc1ccccc1 [Example 84]
0.6 µM	C[C@@H](NC(=S)NCCc1ccccc1O)c1ccccc1 [Example 85]
30 µM	S=C(NCCc1ccccc1)N1Cc2ccccc2C1 [Example 55]
30 µM	NC(=O)CNC(=S)NCc1ccccc1 [Example 53]
3 µM	CC(C)(C)OC(=O)NCC(=O)Nc1cccc(CNC(=S)NCCc2ccccc2)c1 [Example 82, tert-butyl (3-{[3-(2-phenylethyl)thioureido]methyl}phenylcarbamoyl)methylcarbamate]
0.3 µM	Cc1ccc(O)c(C(O)CNC(=S)N[C@H](C)c2cccc(O)c2)c1 (stereo partly drawn) [Example 113]
30 µM	C[C@@H](NC(=S)NN)c1ccccc1 [Example 36]
0.06 to 0.1 µM	C[C@@H](NC(=S)NCCc1ccccc1O)c1ccc(O)c(O)c1 [Example 104]
10 µM	S=C(NCCc1ccccc1)NCC12CC3CC(CC(C3)C1)C2 [Example 32]
1 µM	Oc1ccc(CNC(=S)NCCc2ccccc2)cc1O [Example 40, 1-(3,4-dihydroxybenzyl)-3-(2-phenylethyl)thiourea]
3 to 10 µM	CN(CCc1ccccc1)C(=S)NCc1ccccc1 [Example 66]
3.3 µM	COc1ccccc1CCNC(=S)NCc1ccccc1 [Example 29]
10 µM	C[C@@H](NC(=S)N[C@H](C)c1ccccc1)c1ccccc1 [Example 25]
3 to 10 µM	C[C@@H](NC(=S)NNCc1c(O)cccc1O)c1ccccc1 [Example 95]
0.1 to 0.3 µM	CN(CCc1ccccc1)C(=S)Nc1ccc(O)cc1C(=O)O [Example 120]
1 µM	S=C(NCCc1ccccc1)NCc1cccnc1 [Example 31]
1 µM	CC[C@@H](NC(=S)NCCc1ccccc1O)c1ccccc1 [Example 98]
30 µM	Oc1ccccc1CNC(=S)NCCc1ccccc1 [Example 61]
1 µM	OC[C@H](Cc1ccccc1)NC(=S)NCc1ccccc1 [Example 57]

MED	SMILES
10 µM	S=C(NCCc1c[nH]c2ccccc12)Nc1ccccc1 [Example 34]
10 µM	S=C(NCc1ccccc1)NCC(c1ccccc1)c1ccccc1 [Example 59]
30 µM	O=C1C(c2ccccc2)NC(=S)N1CCc1ccccc1 (stereo not drawn) [Example 49]
3 µM	Oc1cc(O)cc(CNC(=S)NCCc2ccccc2)c1 [Example 68]
1 µM	S=C(NCCc1ccccc1)NCc1ccco1 [Example 21]
1 µM	COc1ccc([C@@H](C)NC(=S)NCCc2ccccc2O)cc1OC [Example 100]
1 µM	CN(Cc1ccc(O)c(O)c1)C(=S)NCCc1ccc(Cl)cc1 [Example 5]
30 µM	COc1cccc(OC)c1/C=N/NC(=S)N[C@H](C)c1ccccc1 [Example 92, (E)-1-(2,6-dimethoxybenzylidene)-4-((R)-1-phenylethyl)thiosemicarbazide]
3 µM	Oc1ccc(CNC(=S)NCc2ccccc2)cc1O [Example 45]
10 µM	S=C(NCCC1CCCCC1)NCc1ccccc1 [Example 70]
3 µM	C[C@@H](NC(=S)N/N=C/c1ccccc1O)c1ccccc1 [Example 35]
3 µM	S=C(NCCc1ccccc1)NCc1cccc2ccccc12 [Example 20]
1 µM	CC(C)CN(Cc1ccc(O)c(O)c1)C(=S)NCCc1ccccc1 [Example 48]
10 µM	S=C(NCCc1ccccc1)NCCc1ccccc1 [Example 13]
10 µM	Cc1ccc(S(=O)(=O)Nc2cccc(CNC(=S)NCCc3ccccc3)c2)cc1 [Example 87]
10 µM	CCC[C@@H](NC(=S)NCCc1ccccc1O)c1ccccc1 [Example 99]
10 µM	COc1cccc(OC)c1NC(=S)NCCc1c[nH]c2ccc(O)cc12 [Example 126]
1 µM	O=C(O)[C@@H](NC(=S)NCCc1ccccc1O)c1ccccc1 [Example 102, (S)-2-{3-[2-(2-hydroxyphenyl)ethyl]thioureido}-2-phenylacetic acid]
0.06 to 0.1 µM	C[C@@H](NC(=S)NCC(O)c1cccc(O)c1O)c1cccc(O)c1 (stereo partly drawn) [Example 111]
